Experimental data taken from patent publication US20090088380A1, “GHRH ANALOGS AND THERAPEUTIC USES THEREOF” (priority 2007, published 2009).
Where two headings read alike, the source gives them in different places. Non-standard residues stand in square brackets, D forms with d. Residues, ends and D or L forms follow the SMILES beside them. No end group written: not given here.

How the values were obtained:
[1] = biological target: T1, hGHRH(1-44)-NH2 binding sites in rat anterior pituitary (Rattus norvegicus, UniProt Q02644); experiment: Relative binding affinity in rat anterior pituitary preparations, [125I-Tyr10]hGHRH(1-44)-NH2 radioligand; settings: values compared to hGHRH(1-29)-NH2
T1 construct: from tissue; host or cells: anterior pituitary of 2-month old male Sprague Dawley rats
T1 sequence (Q02644 23-423 isoform Q02644-2 limits assumed): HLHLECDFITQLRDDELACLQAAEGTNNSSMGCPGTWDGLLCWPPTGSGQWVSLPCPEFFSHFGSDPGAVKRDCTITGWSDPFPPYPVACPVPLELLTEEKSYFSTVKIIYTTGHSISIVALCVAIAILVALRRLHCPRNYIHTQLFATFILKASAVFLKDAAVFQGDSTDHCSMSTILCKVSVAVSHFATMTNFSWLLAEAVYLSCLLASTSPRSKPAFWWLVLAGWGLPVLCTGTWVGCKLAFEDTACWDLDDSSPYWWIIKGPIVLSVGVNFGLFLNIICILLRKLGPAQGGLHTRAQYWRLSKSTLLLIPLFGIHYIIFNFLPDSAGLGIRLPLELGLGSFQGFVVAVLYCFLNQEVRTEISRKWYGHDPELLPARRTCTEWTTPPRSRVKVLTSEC
Text: Initial selection of a candidate from the original 14 polysubstituted GHRH analogs described in the U.S. Pat. No. 5,854,216 was based upon in vitro data on receptor affinity in 2-month old male Sprague Dawley rat anterior pituitary preparations. The embodiments are based on the affinity of selected GHRH analogs for the human GHRH receptor (hGHRH-R) in baby hamster kidney (BHK) cells transfected with hGHRH-R, and on resistance to proteolysis in rat serum, human plasma or human serum. More precisely, the preferred drug candidates were selected, as compared to hGHRH(1-29)-NH2, for: i-their increased relative binding affinity to hGHRH(1-44)-NH2 binding sites in rat anterior pituitary in vitro as well as to hGHRH-R in BHK-expressing cells in vitro; and ii-their relative resistance to proteolysis in vitro.

human GHRH receptor = biological target: T2, human GHRH receptor (Homo sapiens, UniProt Q02643); experiment: 125I-GHRH competitive binding assay in BHK cell membrane preparations; settings: in comparison with hGHRH(1-29)NH2; ratio IC50 hGHRH(1-29)-NH2/IC50 analog
T2 construct: expressed in transfected cells; host or cells: BHK (baby hamster kidney) 570 cells, membrane preparations
T2 sequence (Q02643 23-423): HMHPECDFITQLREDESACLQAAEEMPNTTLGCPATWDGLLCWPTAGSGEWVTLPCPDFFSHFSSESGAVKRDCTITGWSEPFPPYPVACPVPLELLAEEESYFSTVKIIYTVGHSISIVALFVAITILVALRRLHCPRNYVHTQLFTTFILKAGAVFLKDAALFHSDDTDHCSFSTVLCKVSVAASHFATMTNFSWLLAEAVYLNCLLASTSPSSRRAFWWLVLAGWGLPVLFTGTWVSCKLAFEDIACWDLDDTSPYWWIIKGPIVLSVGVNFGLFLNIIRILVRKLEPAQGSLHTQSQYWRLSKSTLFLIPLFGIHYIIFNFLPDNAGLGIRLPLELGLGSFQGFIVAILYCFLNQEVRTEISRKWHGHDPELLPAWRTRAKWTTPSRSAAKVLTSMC
Experimental: Non specific binding was determined in presence of 1 μM hGHRH(1-29)NH2. Incubation was carried out at equilibrium (23° C., 60 min) and stopped by centrifugation (12,000 g, 5 min, at 4° C.). The radioactivity content in pellets was determined by gamma counting. The affinity of hGHRH(1-29) NH2 was tested in each experiment to assess the validity of the assay and determine the relative affinity of the analogs.
Values represent the mean±SEM of 3 experiments performed in triplicate for the analogs and the mean±SEM of 2 experiments performed in triplicate for hGHRH(1-44) NH2.
For the binding assay results presented in Tables 8 to 11, values represent the mean±SEM of 8 independent experiments performed in triplicate for the analogs and the mean±SEM of 4 experiments performed in triplicate for hGHRH(1-29)NH2. […] The relative affinity was obtained by taking the ratio IC50 of hGHRH (1-29)-NH2/IC50 analog.

[2] = In vitro proteolysis assay in rat serum; format: in vitro ADME; settings: for Relative resistance to proteolysis in vitro: compared to hGHRH(1-29)-NH2; for Residual concentration (% of initial concentration): incubation 0 min
Experimental: Proteolysis was stopped by adding 800 μl of ice-cold stop buffer (potassium-phosphate buffer, acidified to pH 0.8 with trifluoroacetic acid (TFA) and boiling 5 min (rat serum only). After centrifugation (12000 g, 5 min, 4° C.) (rat serum only), serum-peptide mixtures were passed through a conditioned Sep-Pak C-18 cartridge to extract native GHRH or a GHRH analog residual concentrations from serum proteins. The native GHRH or the analog was eluted in 2 ml of 50% acetonitrile-0.01% TFA/50% 0.01% aqueous TFA. 200 μl of extracted peptide, representing 1 μg of GHRH or analog at time 0, was quantified by analytical HPLC, using one μ-Bondapak C18 column (10 μm particle size, 0.39×15 cm) (rat serum) or two C18 columns in series (human serum and plasma) and a binary solvent system composed of NaClO4 0.01 M, pH 2.5 and acetonitrile. A linear gradient from 30 to 60% acetonitrile over 45 min (rat serum) or 30 to 50% (human serum and plasma) was used. Elution of intact peptide was monitored at 214 nm and residual concentration determined by assessment of peak surface areas.

rat GHRH receptor (rat) = rat GHRH receptor (rat) (UniProt Q02644); experiment: competition with [125I-Tyr10]hGHRH(1-44)-NH2, rat anterior pituitary membrane preparations
[3] = biological target: human GHRH receptor (human) (UniProt Q02643); experiment: competition with [125I-Tyr10]hGHRH(1-44)NH2, BHK cell membrane preparations expressing the human GHRH receptor
[4] = biological target: human GHRH receptor (human) (UniProt Q02643); experiment: as above; remark: listed apart in the source

Compound	Relative binding affinity in rat anterior pituitary [1]	Relative binding affinity (R1) in hGHRH-R BHK-expressing cells (human GHRH receptor)	Relative resistance to proteolysis in vitro [2]	Residual concentration (% of initial concentration) [2]	Relative binding affinity in rat anterior pituitary (relative to hGHRH(1-29)-NH2) (rat GHRH receptor (rat))	IC50 [3]	IC50 [4]	Relative binding affinity (R1) in comparison with hGHRH(1-29)NH2 ([4]; scale: ratio IC50 of hGHRH)
CC[C@H](C)[C@H](NC(=O)[C@H](C)NC(=O)[C@H](CC(=O)O)NC(=O)[C@@H](C)NC(=O)[C@@H](N)Cc1ccc(O)cc1)C(=O)N[C@@H](Cc1ccccc1)C(=O)N[C@H](C(=O)N[C@@H](CC(N)=O)C(=O)N[C@@H](CO)C(=O)N[C@H](Cc1ccc(O)cc1)C(=O)N[C@@H](CCCNC(=N)N)C(=O)N[C@@H](CCCCN)C(=O)N[C@H](C(=O)N[C@@H](CC(C)C)C(=O)NCC(=O)N[C@@H](CCC(N)=O)C(=O)N[C@@H](CC(C)C)C(=O)N[C@@H](CO)C(=O)N[C@@H](C)C(=O)N[C@@H](CCCNC(=N)N)C(=O)N[C@@H](CCCCN)C(=O)N[C@@H](CCCCN)C(=O)N[C@@H](CC(C)C)C(=O)N[C@@H](CCC(N)=O)C(=O)N[C@@H](CC(=O)O)C(=O)N[C@H](C(=O)N[C@@H](CCSC)C(=O)N[C@@H](CO)C(=O)N[C@@H](CCCNC(=N)N)C(N)=O)[C@@H](C)CC)C(C)C)[C@@H](C)O [GHRH analog #3, [D-Ala^2, D-Tyr^10, Lys^22] hGHRH(1-29)-NH2] (H-Y[dA]DAIFTNS[dY]RKVLGQLSARKKLQDIMSR-NH2; N-terminus assumed)	4.90 ± 2.70	239 ± 55	2.25	100 ± 0 % of initial concentration	–	–	–	–
CC[C@H](C)[C@H](NC(=O)[C@H](C)NC(=O)[C@H](CC(=O)O)NC(=O)[C@@H](C)NC(=O)[C@@H](N)Cc1ccc(O)cc1)C(=O)N[C@@H](Cc1ccccc1)C(=O)N[C@H](C(=O)N[C@@H](C)C(=O)N[C@@H](CO)C(=O)N[C@H](Cc1ccc(O)cc1)C(=O)N[C@@H](CCCNC(=N)N)C(=O)N[C@@H](CCCCN)C(=O)N[C@H](C(=O)N[C@@H](CC(C)C)C(=O)N[C@@H](C)C(=O)N[C@@H](CCC(N)=O)C(=O)N[C@@H](CC(C)C)C(=O)N[C@@H](CO)C(=O)N[C@@H](C)C(=O)N[C@@H](CCCNC(=N)N)C(=O)N[C@H](CCCCN)C(=O)N[C@@H](CCCCN)C(=O)N[C@@H](CC(C)C)C(=O)N[C@@H](CCC(N)=O)C(=O)N[C@@H](CC(=O)O)C(=O)N[C@H](C(=O)N[C@@H](CCSC)C(=O)N[C@@H](CO)C(=O)N[C@@H](CCCNC(=N)N)C(N)=O)[C@@H](C)CC)C(C)C)[C@@H](C)O [GHRH analog #4, [D-Ala^2, Ala^8, D-Tyr^10, Ala^15, D-Lys^21, Lys^22] hGHRH(1-29)-NH2] (H-Y[dA]DAIFTAS[dY]RKVLAQLSAR[dK]KLQDIMSR-NH2; N-terminus assumed)	5.00 ± 0.91	0.05 ± 0.01	6.06	100 ± 0 % of initial concentration	–	–	–	–
YADAIFTAAYRKVLAQLSARKALQDIMSR-NH2 [GHRH analog #2, [Ala^8, Ala^9, Ala^15, Ala^22] hGHRH(1-29)-NH2]	7.74 ± 3.49	3.70 ± 0.52	1.81	100 ± 0 % of initial concentration	–	–	–	–
[D-Ala2, D-Tyr10, D-Ala15, Lys22] hGHRH(1-29)-NH2 (peptide)	–	–	–	–	1.04	1.2 pM	6 pM	939
